# Measured values: US6624182B1, “Hydroxyphenylvinylthiazoles” (Ciba Specialty Chemicals Corporation, priority 1999, dated 2003)
# Columns and labels:
# S. aureus = assay: Determination of the minimum inhibitory concentration (MIC value) in microtitre plates; type: cell-based; conditions: Staphylococcus aureus; optical density at 620 nm, 48 hours at 37° C., MIC = ≦20% growth; tested at 100; 10 and 1 ppm (approximate values); (2), (3), (4) at 120; 60; 30; 15; 7.5; 3.75 ppm
# In short: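 DMSO-dissolved compounds were tested in 1:2 serial dilutions against bacteria in CASO bouillon, from inocula of 1−5×10^6 KBE/ml diluted 1:100. Growth was read by OD 620 nm after 48 h at 37 °C. MIC was the lowest concentration giving ≦20% growth versus the growth control, tested in duplicate.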
# A. niger = assay: as above; type: cell-based, Aspergillus niger ATCC 6275; conditions: Aspergillus niger, 120 h; optical density at 620 nm, 5 days at 28° C., MIC = ≦20% growth; tested at 100; 10 and 1 ppm (approximate values); (2), (3), (4) at 120; 60; 30; 15; 7.5; 3.75 ppm
# In short: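 A. niger ATCC 6275 spores, adjusted to 1−5×10^6 KBE/ml and diluted 1:100 in Sabouraud 2% glucose bouillon, were exposed to 2-fold dilutions of DMSO-dissolved compounds for 5 days at 28°C. Growth read as OD at 620 nm. MIC is the lowest concentration giving ≤20% growth versus growth control, tested in duplicate.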
SMILES,MIC (S. aureus) [µg/mL],MIC (A. niger) [µg/mL]
Oc1ccc(/C=C/c2nc(-c3ccc(F)cc3)cs2)cc1 [Compound of formula (2)],> 100,> 100
Oc1ccc(/C=C/c2nc(-c3ccccc3)cs2)cc1 [Compound of formula (4)],> 100,> 100
CC(C)(C)c1csc(/C=C/c2ccccc2O)n1 [Compound of formula (3)],60,> 100
